Values after ≈ are worked out from the molar mass of the structure shown. A value given as a limit tells only on which side of the number the result lay.

Common to all, as to type: cell-based
Assay [1] relates to Gram-negative and Gram-positive bacterial pathogens. The assay can be described thus: MIC on a range of bacterial pathogens (summary statement). Particulars: summary of Table 3, in words. As for the experimental part: (§1) The minimum inhibition concentration (MIC) of zeamine I was carried out according to the NCCLS guidelines (4). Briefly, 96-well plates containing 2-fold serial dilutions of zeamine I and control antibiotics were prepared with LB liquid medium. The fresh overnight LB cultures of tested bacterial strains were then inoculated to the above plates after dilution to yield a final density of 10^6 CFU/ml and 10^7 CFU/ml, respectively. The plates were then incubated with gentle shaking at 30° C. or 37° C. depending on the preferred growth temperature of the tested strains. After 24 h, the plates were collected to measure OD600. The MIC was defined as the lowest concentration of the antibiotic allowing no visible growth. The MIC assay was repeated twice each time with triplicate.
The minimum inhibition concentration (MIC) of zeamine I was determined on a range of bacterial pathogens. […] In contrast, a high dosage of ampicillin, which is a commonly used antibiotic, was required to inhibit the growth of these bacterial pathogens.

In assay [2] the test system is Enterobacter aerogenes ATCC 13048. The assay can be described thus: MIC determination (NCCLS, 96-well, LB). As to conditions: Klebsiella aerogenes, ATCC13048, 1 × 10^6 CFU/ml in LB, 30° C., 24 h. As for the experimental part:
as §1

In assay [3] the test system is Pseudomonas aeruginosa PA14. The assay can be described thus: MIC determination (NCCLS, 96-well, LB). Particulars: 1 × 10^6 CFU/ml in LB, 30° C., 24 h. As to the method: as §1
For assay [4], the system named is Burkholderia cepacia J2315. Briefly: MIC determination (NCCLS, 96-well, LB). As to conditions: 1 × 10^6 CFU/ml in LB, 30° C., 24 h. As for the experimental part:
as §1

Assay [5] deals with Staphylococcus aureus ATCC 25531. Briefly: MIC determination (NCCLS, 96-well, LB). As to conditions: ATCC25531, 1 × 10^6 CFU/ml in LB, 30° C., 24 h. As to the method:
as §1

Assay [6] relates to Klebsiella pneumonia. Briefly: MIC determination (NCCLS, 96-well, LB). Particulars: Klebsiella pneumoniae, 1 × 10^6 CFU/ml in LB, 30° C., 24 h. As for the experimental part: as §1
Assay [7] relates to E. coli DH5α. Briefly: MIC determination (NCCLS, 96-well, LB). As to conditions: Escherichia coli, 1 × 10^6 CFU/ml in LB, 30° C., 24 h. As to the method: as §1
Assay [8] concerns Pseudomonas aeruginosa PAO1. Briefly: MIC determination (NCCLS, 96-well, LB). As to conditions: 1 × 10^6 CFU/ml in LB, 30° C., 24 h. As to the method: as §1
The subject of assay [9] is Staphylococcus aureus BBA-41. Briefly: MIC determination (NCCLS, 96-well, LB). Particulars: BBA41, 1 × 10^6 CFU/ml in LB, 30° C., 24 h. As for the experimental part: as §1
In assay [10] the test system is Aeromonas hydrophila. The assay can be described thus: MIC determination (NCCLS, 96-well, LB). Particulars: 1 × 10^6 CFU/ml in LB, 30° C., 24 h. As for the experimental part:
as §1

Assay [11] concerns E. coli CFT073. The assay can be described thus: MIC determination (NCCLS, 96-well, LB). As to conditions: Escherichia coli, 1 × 10^6 CFU/ml in LB, 30° C., 24 h. As for the experimental part: as §1
In assay [12] the test system is Bacillus cereus XJ8. Briefly: MIC determination (NCCLS, 96-well, LB). As to conditions: 1 × 10^6 CFU/ml in LB, 30° C., 24 h. As for the experimental part:
as §1

Assay [13] has as its system Burkholderia cepacia H111. Briefly: MIC determination (NCCLS, 96-well, LB). Particulars: 1 × 10^6 CFU/ml in LB, 30° C., 24 h. As to the method:
as §1

The test system of assay [14] is Salmonella enterica. The assay can be described thus: MIC determination (NCCLS, 96-well, LB). Particulars: 24 h. As to the method: as §1
The test system of assay [15] is Escherichia coli strain DH5α. Briefly: Antibiotic bioassay (agar well inhibition zone). As to conditions: 20 microliters of fraction in 4-mm wells, 37° C. overnight. As to the method: The bactericidal activity was assayed using Escherichia coli strain DH5α following the method described previously by Zhang et al. (Zhang et al. (1998). Factors affecting biosynthesis by Xanthomonas albilineans of albicidin antibiotics and phytotoxins. J. Appl. Microbiol. 85: 1023-1028). Briefly, an overnight LB culture of strain DH5α was diluted by 10-fold in sterilized water, and 100 microliters of the dilute were added to 5 ml of 1% agarose solution, which was autoclaved with temperature being maintained at 50° C. The bioassay plate was prepared by adding the mixture onto a plate containing 20 ml LB agar. Bioassay was conducted by adding 20 microliters of bacterial supernatants or fractions to the 4-mm diameter wells in bioassay plate. The plate was incubated at 37° C. overnight before examination of inhibition zone.

What is called MIC is the lowest concentration found to suppress growth. The low end stands for greater potency, the high end for weaker potency. Regarding `CC1(C)S[C@@H]2[C@H](NC(=O)[C@H](N)c3ccccc3)C(=O)N2[C@H]1C(=O)O` [Ampicillin], in assay [1], the “dosage required to inhibit the growth of these bacterial pathogens” value is “high dosage”. For the same compound, the MIC in assay [2] was greater than 800 µg/mL; in assay [3], 800 µg/mL (≈ 2290 µM); in [4] it was greater than 800 µg/mL; in assay [5], 15.6 µg/mL (≈ 44.6 µM); in assay [6], greater than 800 µg/mL; in assay [7], 25 µg/mL (≈ 71.5 µM). Moreover, the MIC in [8] is 400 µg/mL (≈ 1140 µM); in assay [9] it was greater than 500 µg/mL; in [10], 125 µg/mL (≈ 358 µM); in assay [11], 25 µg/mL (≈ 71.5 µM); in assay [12], 100 µg/mL (≈ 286 µM); in [13] it was greater than 800 µg/mL. This compound also gave a minimum inhibitory concentration (MIC) in assay [14] of 12.5 µg/mL (≈ 35.8 µM).

Turning to `NC[C@H]1O[C@H](O[C@H]2[C@H](O)[C@@H](O[C@H]3O[C@H](CO)[C@@H](O)[C@H](N)[C@H]3O)[C@H](N)C[C@@H]2N)[C@H](O)[C@@H](O)[C@@H]1O` [Kanamycin], the MIC in assay [2] was determined as 3.1 µg/mL (≈ 6.4 µM); in assay [3] it was 200 µg/mL (≈ 413 µM); in assay [4], 400 µg/mL (≈ 826 µM); in assay [5], 6.2 µg/mL (≈ 12.8 µM); in assay [6], 3.1 µg/mL (≈ 6.4 µM); in assay [7] it was 10 µg/mL (≈ 20.6 µM). Besides, the MIC is 200 µg/mL (≈ 413 µM) in assay [8]; 12.5 µg/mL (≈ 25.8 µM) in assay [9]; 25 µg/mL (≈ 51.6 µM) in [10]; 6.2 µg/mL (≈ 12.8 µM) in [11]; 3.1 µg/mL (≈ 6.4 µM) in assay [12]; 6.2 µg/mL (≈ 12.8 µM) in assay [13]. In assay [14], this compound had an MIC of 12.5 µg/mL (≈ 25.8 µM).

As for `CN(C)[C@@H]1C(O)=C(C(N)=O)C(=O)[C@@]2(O)C(O)=C3C(=O)c4c(O)cccc4[C@@](C)(O)[C@H]3C[C@@H]12` [Tetracycline], the MIC in assay [2] turned out to be 3.1 µg/mL (≈ 6.98 µM); in [3] it was 12.5 µg/mL (≈ 28.1 µM); in assay [4], 50 µg/mL (≈ 113 µM); in [5] it was 3.1 µg/mL (≈ 6.98 µM); in assay [6] it was 6.2 µg/mL (≈ 14 µM); in [7], 3.1 µg/mL (≈ 6.98 µM). The MIC is 6.2 µg/mL (≈ 14 µM) in [9]; 6.2 µg/mL (≈ 14 µM) in assay [10]; 0.75 µg/mL (≈ 1.69 µM) in [11]; 6.2 µg/mL (≈ 14 µM) in [12]; 12.5 µg/mL (≈ 28.1 µM) in [13].

With `CCCCCC(N)CCCCCCCC(N)CCCCCCCC(N)CCCCCCCC(N)CCCCCCCC(O)CCN` (stereo not drawn) [Zeamine II], the “antibiotic activity of HPLC fraction in bioassay” value in assay [15] was “minor active fraction”.

The values are drawn from patent US8748661B2, “Polyamino polyketide antibiotics and uses thereof” (priority 2008, dated 2014).
